The values below come from US9233920B2, “Process for the preparation of dihydropyrrole derivatives” (Syngenta Participations AG, priority 2010, dated 2016).

Holding throughout (type): in vivo
Assay [1] concerns Heliothis virescens. Briefly: Heliothis virescens (tobacco budworm) egg/larval test on artificial diet in 24-well microtiter plate. The following applies: Heliothis virescens eggs 0-24 h old, 4 days incubation, egg mortality, larval mortality, growth regulation. The protocol: (§1) These examples illustrate the comparative insecticidal and acaricidal properties of compounds A23 and A24. The tests were performed as follows:
Heliothis virescens (Tobacco Budworm):
Eggs (0-24 h old) were placed in 24-well microtiter plate on artificial diet and treated with test solutions at an application rate of 12.5 ppm (concentration in well 18 ppm) by pipetting. After an incubation period of 4 days, samples were checked for egg mortality, larval mortality, and growth regulation.

Assay [2] deals with Diabrotica balteata. Kind of assay: Diabrotica balteata (corn root worm) L2 larvae test on artificial diet in 24-well microtiter plate. The following applies: 5 days incubation, larval mortality and growth regulation. The protocol:
as §1
Diabrotica balteata (Corn Root Worm):
A 24-well microtiter plate (MTP) with artificial diet was treated with test solutions at an application rate of 12.5 ppm (concentration in well 18 ppm) by pipetting. After drying, the MTP's were infested with L2 larvae (6-10 per well). After an incubation period of 5 days, samples were checked for larval mortality and growth regulation.

Assay [3] concerns Thrips tabaci. Kind of assay: Thrips tabaci (onion thrips) sunflower leaf disc spray test. The following applies: Thrips tabaci mixed ages on sunflower leaf discs, 7 days incubation, mortality. The protocol: as §1
Thrips tabaci (Onion Thrips):
[…] After drying, the leaf discs were infested with an […] population of mixed ages. After an incubation period of 7 days, samples were checked for mortality.

Take `Cc1cc(C2=NC[C@@](c3cc(Cl)cc(Cl)c3)(C(F)(F)F)C2)ccc1C(=O)NC1CS(=O)(=O)C1` [Compound A23, 4-[(3R)-3-(3,5-dichlorophenyl)-3-(trifluoromethyl)-2,4-dihydropyrrol-5-yl]-N-(1,1-dioxothietan-3-yl)-2-methyl-benzamide]: the “% Control at 12.5 ppm” value in assay [1], in assay [2] and in assay [3] was 100% in each case. In addition, the “% Control at 200 ppm” value in assay [1], in assay [2] and in assay [3] was 100% throughout.

Consider `Cc1cc(C2=NC[C@](c3cc(Cl)cc(Cl)c3)(C(F)(F)F)C2)ccc1C(=O)NC1CS(=O)(=O)C1` [Compound A24, 4-[(3S)-3-(3,5-dichlorophenyl)-3-(trifluoromethyl)-2,4-dihydropyrrol-5-yl]-N-(1,1-dioxothietan-3-yl)-2-methyl-benzamide], for which the “% Control at 12.5 ppm” value in assay [1] is reported as 50%; in assay [2], 0%; in assay [3], 40%. For the same compound, the “% Control at 200 ppm” value in assay [1], in assay [2] and in assay [3] was 100% each time.
